Laboratory results from paper PMC9516332 (Frontiers in Oncology, 2022).
Where two headings read alike, the source gives them in different places.

What was measured:
[1] = biological target: panel of 255 wild-type kinases (Homo sapiens, UniProt P45983); assay: Kinase panel profiling at 1 µmol/L (MSA or IMAP), percentage inhibition; type: biochemical; details: kinase JNK1; 1 µmol/L single concentration; read-out: %-inhibition at 1 µmol/L, JNK1
[2] = biological target: T1, panel of 255 wild-type kinases (Homo sapiens, UniProt Q8IW41); assay: as above; type: biochemical; details: MAPKAPK5; 1 µmol/L single concentration; read-out: %-inhibition, MAPKAPK5
T1 sequence (Q8IW41 1-473): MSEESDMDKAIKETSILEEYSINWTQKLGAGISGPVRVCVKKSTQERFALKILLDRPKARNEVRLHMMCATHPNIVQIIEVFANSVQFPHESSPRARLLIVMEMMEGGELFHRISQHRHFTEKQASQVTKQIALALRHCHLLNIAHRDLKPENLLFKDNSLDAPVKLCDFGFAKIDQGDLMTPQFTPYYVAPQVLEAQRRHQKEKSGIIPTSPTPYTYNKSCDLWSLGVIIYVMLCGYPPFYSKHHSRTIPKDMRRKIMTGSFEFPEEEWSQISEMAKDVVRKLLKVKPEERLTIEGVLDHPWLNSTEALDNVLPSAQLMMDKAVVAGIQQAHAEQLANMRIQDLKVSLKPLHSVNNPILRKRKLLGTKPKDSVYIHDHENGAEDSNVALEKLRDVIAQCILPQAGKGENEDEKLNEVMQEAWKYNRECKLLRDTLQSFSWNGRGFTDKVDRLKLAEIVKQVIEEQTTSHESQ

AP-1060 (ETV6-NTRK3) = assay: Cell viability assay; details: read-out: IC50 in cell proliferation assay
134 cancer cell lines = assay: Cell viability assay (ATPlite, 72 hours), IC50 on cancer cell line panel

## C=CC(=O)N1CCC([C@@H]2CCNc3c(C(N)=O)c(-c4ccc(Oc5ccccc5)cc4)nn32)CC1 [zanubrutinib]
[1]
  inhibition at 1 µM: -3.49%
[2]
  inhibition at 1 µM: -3.6%
AP-1060 (ETV6-NTRK3)
  IC50: > 31.6 µM
134 cancer cell lines; HEC-6, read-out: IC50 in cell proliferation assay
  IC50: 0.355 µM
134 cancer cell lines; Homo sapiens, 769-P, read-out: IC50 in cell proliferation assay
  IC50: 4.48 µM
134 cancer cell lines; Homo sapiens, 786-0, read-out: IC50 in cell proliferation assay
  IC50: 2.19 µM
134 cancer cell lines; Homo sapiens, A 172, read-out: IC50 in cell proliferation assay
  IC50: > 31.6 µM
134 cancer cell lines; Homo sapiens, A204, read-out: IC50 in cell proliferation assay
  IC50: 27.9 µM
134 cancer cell lines; Homo sapiens, A498, read-out: IC50 in cell proliferation assay
  IC50: 5.51 µM
134 cancer cell lines; Homo sapiens, A549, read-out: IC50 in cell proliferation assay
  IC50: 24.7 µM
134 cancer cell lines; Homo sapiens, A704, read-out: IC50 in cell proliferation assay
  IC50: > 31.6 µM
134 cancer cell lines; Homo sapiens, A-375, read-out: IC50 in cell proliferation assay
  IC50: > 31.6 µM
134 cancer cell lines; Homo sapiens, A-427, read-out: IC50 in cell proliferation assay
  IC50: 8.55 µM
134 cancer cell lines; Homo sapiens, ACHN, read-out: IC50 in cell proliferation assay
  IC50: 2.75 µM
134 cancer cell lines; Homo sapiens, AN3-CA, read-out: IC50 in cell proliferation assay
  IC50: 29.8 µM
134 cancer cell lines; Homo sapiens, ASPC1, read-out: IC50 in cell proliferation assay
  IC50: 7.83 µM
134 cancer cell lines; Homo sapiens, AU565, read-out: IC50 in cell proliferation assay
  IC50: 0.303 µM
134 cancer cell lines; Homo sapiens, BT-20, read-out: IC50 in cell proliferation assay
  IC50: 15.1 µM
134 cancer cell lines; Homo sapiens, BT-474, read-out: IC50 in cell proliferation assay
  IC50: 0.213 µM
134 cancer cell lines; Homo sapiens, BT-549, read-out: IC50 in cell proliferation assay
  IC50: 12 µM
134 cancer cell lines; Homo sapiens, BXPC-3, read-out: IC50 in cell proliferation assay
  IC50: 3.04 µM
134 cancer cell lines; Homo sapiens, C-33-A, read-out: IC50 in cell proliferation assay
  IC50: 1.1 µM
134 cancer cell lines; Homo sapiens, CAL-27, read-out: IC50 in cell proliferation assay
  IC50: 1.37 µM
134 cancer cell lines; Homo sapiens, CCF-STTG1, read-out: IC50 in cell proliferation assay
  IC50: > 31.6 µM
134 cancer cell lines; Homo sapiens, CCRF-CEM, read-out: IC50 in cell proliferation assay
  IC50: 13.2 µM
134 cancer cell lines; Homo sapiens, COLO 205, read-out: IC50 in cell proliferation assay
  IC50: > 31.6 µM
134 cancer cell lines; Homo sapiens, COLO-829, read-out: IC50 in cell proliferation assay
  IC50: > 31.6 µM
134 cancer cell lines; Homo sapiens, DLD-1, read-out: IC50 in cell proliferation assay
  IC50: > 31.6 µM
134 cancer cell lines; Homo sapiens, DU-145, read-out: IC50 in cell proliferation assay
  IC50: 1.05 µM
134 cancer cell lines; Homo sapiens, DU-4475, read-out: IC50 in cell proliferation assay
  IC50: 18.1 µM
134 cancer cell lines; Homo sapiens, Daoy, read-out: IC50 in cell proliferation assay
  IC50: 23.4 µM
134 cancer cell lines; Homo sapiens, DoTc2-4510, read-out: IC50 in cell proliferation assay
  IC50: 1.5 µM
134 cancer cell lines; Homo sapiens, EOL1, read-out: IC50 in cell proliferation assay
  IC50: 2.74 µM
134 cancer cell lines; Homo sapiens, FaDu, read-out: IC50 in cell proliferation assay
  IC50: 0.751 µM
134 cancer cell lines; Homo sapiens, G-361, read-out: IC50 in cell proliferation assay
  IC50: 31.4 µM
134 cancer cell lines; Homo sapiens, HCC827, read-out: IC50 in cell proliferation assay
  IC50: 1.33 µM
134 cancer cell lines; Homo sapiens, HCC4006, read-out: IC50 in cell proliferation assay
  IC50: 1.36 µM
134 cancer cell lines; Homo sapiens, HCT-15, read-out: IC50 in cell proliferation assay
  IC50: 15.7 µM
134 cancer cell lines; Homo sapiens, HCT-116, read-out: IC50 in cell proliferation assay
  IC50: > 31.6 µM
134 cancer cell lines; Homo sapiens, HEC-1, read-out: IC50 in cell proliferation assay
  IC50: > 31.6 µM
134 cancer cell lines; Homo sapiens, HEC-1B, read-out: IC50 in cell proliferation assay
  IC50: 5.59 µM
134 cancer cell lines; Homo sapiens, HL-60, read-out: IC50 in cell proliferation assay
  IC50: > 31.6 µM
134 cancer cell lines; Homo sapiens, HT, read-out: IC50 in cell proliferation assay
  IC50: > 31.6 µM
134 cancer cell lines; Homo sapiens, HT-1080, read-out: IC50 in cell proliferation assay
  IC50: > 31.6 µM
134 cancer cell lines; Homo sapiens, Hs746T, read-out: IC50 in cell proliferation assay
  IC50: > 31.6 µM
134 cancer cell lines; Homo sapiens, Hs-578T, read-out: IC50 in cell proliferation assay
  IC50: 28.4 µM
134 cancer cell lines; Homo sapiens, HuTu80, read-out: IC50 in cell proliferation assay
  IC50: 0.961 µM
134 cancer cell lines; Homo sapiens, J82, read-out: IC50 in cell proliferation assay
  IC50: > 31.6 µM
134 cancer cell lines; Homo sapiens, Jurkat E6.1, read-out: IC50 in cell proliferation assay
  IC50: 19.1 µM
134 cancer cell lines; Homo sapiens, K562, read-out: IC50 in cell proliferation assay
  IC50: > 31.6 µM
134 cancer cell lines; Homo sapiens, KATO III, read-out: IC50 in cell proliferation assay
  IC50: 5.47 µM
134 cancer cell lines; Homo sapiens, KG-1, read-out: IC50 in cell proliferation assay
  IC50: 2.85 µM
134 cancer cell lines; Homo sapiens, KLE, read-out: IC50 in cell proliferation assay
  IC50: 2.73 µM
134 cancer cell lines; Homo sapiens, KMS-11, read-out: IC50 in cell proliferation assay
  IC50: 22.6 µM
134 cancer cell lines; Homo sapiens, KU812, read-out: IC50 in cell proliferation assay
  IC50: 12.3 µM
134 cancer cell lines; Homo sapiens, Kasumi 1, read-out: IC50 in cell proliferation assay
  IC50: 3.36 µM
134 cancer cell lines; Homo sapiens, LC-2-ad, read-out: IC50 in cell proliferation assay
  IC50: 16.5 µM
134 cancer cell lines; Homo sapiens, LNCaP-Clone-FGC, read-out: IC50 in cell proliferation assay
  IC50: 13.7 µM
